Biological target: T1, CtGH5-CBM6 (CtGH5-CtCBM6, derivative of arabinoxylanase CtXyl5A) (Acetivibrio thermocellus, UniProt A3DHG6, E279S)
T1 construct: gene Cthe_2193; no signal peptide, CBM13, Fn3, CBM62 or dockerin; C-terminal His6; E. coli BL21(DE3)
Assay: X-ray crystal structure, co-crystal, […] Å
Format: binding
Conditions: nucleophile-inactive mutant; 10 mM WAX-derived oligosaccharide; subsites -1 to -4 and -2*; PDB code printed as 2LA2 (apparent misprint for 5LA2)

T1 sequence (A3DHG6 entry or part of it E279S): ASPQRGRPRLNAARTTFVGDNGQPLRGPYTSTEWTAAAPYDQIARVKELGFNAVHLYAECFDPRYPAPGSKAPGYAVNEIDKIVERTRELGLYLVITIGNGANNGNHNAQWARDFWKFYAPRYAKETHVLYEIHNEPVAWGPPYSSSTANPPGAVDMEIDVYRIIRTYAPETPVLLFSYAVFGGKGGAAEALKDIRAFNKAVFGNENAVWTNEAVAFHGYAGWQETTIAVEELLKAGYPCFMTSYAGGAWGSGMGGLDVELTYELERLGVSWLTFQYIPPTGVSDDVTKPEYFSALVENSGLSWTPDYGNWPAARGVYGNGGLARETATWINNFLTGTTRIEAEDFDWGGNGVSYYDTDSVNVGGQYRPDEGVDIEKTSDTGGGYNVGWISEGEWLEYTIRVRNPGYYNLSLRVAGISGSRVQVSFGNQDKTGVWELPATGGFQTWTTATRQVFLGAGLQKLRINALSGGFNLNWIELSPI

## OC[C@@H]1O[C@@H](O[C@H]2[C@H](O[C@@H]3OC[C@@H](O[C@@H]4OC[C@@H](O[C@@H]5OC[C@@H](O)[C@H](O)[C@H]5O)[C@H](O)[C@H]4O)[C@H](O)[C@H]3O)COC(O)[C@@H]2O)[C@H](O)[C@H]1O (stereo partly drawn) [Xylp-β-1,4-Xylp-β-1,4-Xylp-[α-1,3-Araf]-β-1,4-Xylp]
  X-ray crystal structure, co-crystal, 1.65 Å: co-crystallizing the nucleophile inactive mutant CtGH5E279S-CtCBM6 with a WAX-derived oligosaccharide

— PMC5063996, “The Mechanism by Which Arabinoxylanases Can Recognize Highly Decorated Xylans” (The Journal of Biological Chemistry, 2016)
